Reference: article PMC12475274, “Harnessing indole scaffolds to identify small-molecule IRE1α inhibitors modulating XBP1 mRNA splicing” (Nature Communications, 2025)
Where “and” joins values, the source holds several entries; their conditions need not be identical. Equal entries are not always repeated. Where two headings read alike, the source gives them in different places.

Key:
[1] = biological target: T1, phosphorylated IRE1α (p-IRE1α) (Homo sapiens, UniProt O75460); assay: FRET-based IRE1α RNase activity assay, phosphorylated IRE1α; assay type: biochemical; settings: FRET assay
T1 construct: Human IRE1α kinase and RNase domain (residues 547–977) was subcloned into pLIB plasmid; His tag (with TEV cleavage site) (N, cleaved yes); made in house; host or cells: Sf9 insect cells, baculovirus (Bac-to-Bac)
Description: (§1) Human IRE1α kinase and RNase domain (residues 547–977) was subcloned into pLIB plasmid with a His tag and TEV cleavage site, and expressed using Bac-to-Bac expression system. The primers used are listed in Supplementary Table S3. The protein purification was performed following established procedures. Briefly, Sf9 cells were infected with baculovirus and incubated at 27 °C 110 rpm for 72 h. The cells were collected by centrifugation at 4000 × g for 15 min and the cell pellet was resuspended in lysis buffer (50 mM HEPES pH 7.5, 300 mM NaCl, 10% glycerol, 1 mM MgCl2, 1 mM TCEP, 5 mM imidazole), then supplemented with 1:10,000 benzonase (Sigma, E1014), 1 tablet/25 mL […]™ Protease Inhibitor Cocktail tablets (Sigma, S8830) and 1 mM PMSF before lysed by sonication at 4 °C. […] The protein elution was incubated with TEV protease to remove His tag at 4 °C overnight. Then the sample was diluted 1:6 in buffer (50 mM HEPES pH 7.5, 1 mM TCEP, 5% glycerol) and loaded onto a 5 mL pre-packaged Q HP anion exchange column (Cytiva, HiTrap Q HP) pre-equilibrated with QA buffer (50 mM HEPES pH 7.5, 50 mM NaCl, 1 mM TCEP, 5% glycerol). The unphosphorylated and phosphorylated protein was separated by eluting the protein with a very shallow gradient with 0-30% buffer QB (50 mM HEPES pH 7.5, 1 M NaCl, 1 mM TCEP, 5% glycerol) over 80 CV. Different peaks were collected separately and verified by LC-MS. The fully phosphorylated fraction was collected and further purified by size exclusion chromatography (Cytiva, HiLoad 16/600 Superdex 200 pg,) with SEC buffer (25 mM HEPES pH 7.5, 250 mM NaCl, 1 mM TCEP, 10% glycerol) and fractioned as monomeric peak. The rest protein fraction from the Q HP anion exchange column was incubated with Lambda protein phosphatase (New England BioLabs, P0753S) overnight at 4 °C, the dephosphorylation was confirmed by LC-MS. The unphosphorylated protein was further purified by size exclusion chromatography with the SEC buffer described above. The purified phosphorylated (p-IRE1α) and dephosphorylated (IRE1α) protein aliquots were stored at −80 °C for future usage.
(§2) The dual-labeled RNA substrate with a FAM at 5’ and the BHQ-1 at 3’ containing the XBP1 sequence (5′FAM-[…]-3′BHQ1) was purchased from Integrated DNA Technologies (IDT). The FRET-based IRE1α RNase activity assay was carried out in reaction buffer containing 20 mM HEPES pH 7.5, 50 mM KOAc, 1 mM MgOAc2, 1 mM DTT, 0.05% v/v TritonX-100, at a total reaction volume of 20 μL in a 384-well black plate (4514, Corning). For unphosphorylated IRE1α (IRE1α), a final concentration of 40 nM IRE1α protein and 100 nM RNA substrate was used. For phosphorylated IRE1 (p-IRE1α), a final concentration of 4 nM p-IRE1α protein and 200 nM RNA substrate was used. The indicated compound and IRE1α protein were incubated for 30 min at room temperature before the substrate was added to the reaction. The plate was then kinetically read over one hour at room temperature using a TECAN Spark plate reader. The measurement was carried out using the fluorescence top reading mode at the excitation wavelength of 485 nm and the emission wavelength of 535 nm with a 10 nm excitation and emission bandwidth. The linear part of the reaction curve was adopted and fitted with sample linear regression to obtain the slope, and the slope was adopted to reflect the reaction rate. The inhibition % was calculated by using the equation: inhibition% = 100 × (slope of DMSO control – slope of the sample)/(slope of DMSO control – slope of blank control), DMSO control: DMSO with protein and RNA substrate; Blank control: DMSO with RNA substrate. The IC50 values were calculated using the concentration-response model in GraphPad Prism 9.

[2] = biological target: T2, dephosphorylated IRE1α (547–977) (Homo sapiens, UniProt O75460); assay: FRET-based IRE1α RNase activity assay, dephosphorylated IRE1α; assay type: biochemical; settings: for IC50: FRET assay
T2 construct: Human IRE1α kinase and RNase domain (residues 547–977) was subcloned into pLIB plasmid; His tag (with TEV cleavage site) (N, cleaved yes); made in house; host or cells: Sf9 insect cells, baculovirus (Bac-to-Bac)
Description: as §1
as §2, with “9. […]” for “9.”

[3] = RNase activity, mean (± SEM), read-out: p-IRE1α IC50
[4] = RNase activity, mean (± SEM), read-out: IRE1α IC50
[5] = source data, unit from Fig. 3, read-out: p-IRE1a IC50, individual replicates (n1-n4)
[6] = source data, unit from Fig. 3 / sheet Fig. 2b, read-out: IRE1a IC50, individual replicates (n1-n4)

T1 sequence (O75460 547-977): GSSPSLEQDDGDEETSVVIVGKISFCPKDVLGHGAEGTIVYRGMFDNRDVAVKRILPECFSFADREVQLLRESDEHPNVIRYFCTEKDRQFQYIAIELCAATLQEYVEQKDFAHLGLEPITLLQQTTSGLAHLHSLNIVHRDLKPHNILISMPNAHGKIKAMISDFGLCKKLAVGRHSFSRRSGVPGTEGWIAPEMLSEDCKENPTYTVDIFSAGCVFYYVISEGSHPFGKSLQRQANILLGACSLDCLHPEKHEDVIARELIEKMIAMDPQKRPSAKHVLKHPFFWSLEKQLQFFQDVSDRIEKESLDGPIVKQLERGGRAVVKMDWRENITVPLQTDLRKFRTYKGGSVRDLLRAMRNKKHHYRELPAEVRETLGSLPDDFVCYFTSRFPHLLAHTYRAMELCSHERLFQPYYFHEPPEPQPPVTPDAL
T2 sequence (O75460 547-977): as above

Row | Compound | IC50 [1, 3] | IC50 [2, 4] [µM] | IC50 [1, 5] | IC50 [2, 6] | reduction in IRE1α inhibition relative to IA64 ([2]; FRET IC50)
1 | Cc1c(CCC(=O)O)c2cc(-c3ccoc3)ccc2n1C(=O)c1ccccc1 [IA138] | 2.03 µM | 1.27 | – | – | –
2 | Cc1c(CCC(=O)O)c2cc(-c3cccs3)ccc2n1C(=O)c1ccccc1 [IA140] | 7.56 µM | 2.97 | 1.97 µM and 10.1 µM and 10.6 µM | 2.31 µM and 3.81 µM and 2.78 µM | –
3 | Cc1noc(C)c1-c1ccc2c(c1)c(CCC(=O)O)c(C)n2C(=O)c1ccccc1 [IA142] | 4.68 µM | 1.61 | 4.81 µM and 5.54 µM and 3.68 µM | 2.69 µM and 1.1 µM and 1.04 µM | –
4 | COc1ncc(-c2ccc3c(c2)c(CCC(=O)O)c(C)n3C(=O)c2ccccc2)c(OC)n1 [IA143] | 39.4 µM | 14.1 | 40.5 µM and 47.1 µM and 30.6 µM | 19.6 µM and 14 µM and 8.76 µM | –
5 | Cc1c(CCC(=O)O)c2cc(-c3ccc(C(F)(F)F)cc3)ccc2n1C(=O)c1ccccc1 [IA145] | 43.2 µM | 13.4 | 40.7 µM and 46.9 µM and 42.1 µM | 14.1 µM and 14.2 µM and 11.9 µM | –
6 | Cc1c(CCC(=O)O)c2cc(-c3cccc(N)c3)ccc2n1C(=O)c1ccccc1 [IA146] | 6.65 µM | 1.21 ± 0.82 | 7.28 µM and 8.07 µM and 4.59 µM | 2.15 µM and 0.81 µM and 0.672 µM | –
7 | Cc1c(CCC(=O)O)c2cc(OC(F)(F)F)ccc2n1C(=O)c1ccccc1 [IA148] | 0.94 µM | 0.57 ± 0.36 | 0.986 µM and 0.798 µM and 1.02 µM | 0.524 µM and 0.238 µM and 0.957 µM | ~ 19 fold
8 | Cc1c(CCC(=O)O)c2cc(-c3cccc(C(=O)O)c3)ccc2n1C(=O)c1ccccc1 [IA149] | 8.81 µM and 8.82 µM | 1.01 ± 0.27 | 6.8 µM and 11.6 µM and 8.05 µM | 0.895 µM and 0.824 µM and 1.32 µM | –
9 | Cc1c(CCC(=O)O)c2cc(-c3ccc(C(N)=O)cc3)ccc2n1C(=O)c1ccccc1 [IA152] | 43.1 µM | 12.1 | 46.9 µM and 49.8 µM and 32.5 µM | 10.8 µM and 12.5 µM and 13 µM | –
